Test results taken from ChEMBL document CHEMBL4346711, “Discovery of coumarin Mannich base derivatives as multifunctional agents against monoamine oxidase B and neuroinflammation for the treatment of Parkinson's disease” (Eur J Med Chem, 2019).
Active and inactive are the calls of the source. No cut-off for these calls is given here.

Tests used:
[1] = target: T1, Amine oxidase [flavin-containing] B (Homo sapiens, UniProt P27338); assay: Inhibition of recombinant human MAO-B expressed in baculovirus infected BTI insect cells using p-tyramine as substrate preincubated for 60 mins followed by substrate addition and measured after 30 mins by horse-radish peroxidase-coupled amplex red reagent-based fluorescence spectrophotometric method
T1 sequence (P27338 whole entry): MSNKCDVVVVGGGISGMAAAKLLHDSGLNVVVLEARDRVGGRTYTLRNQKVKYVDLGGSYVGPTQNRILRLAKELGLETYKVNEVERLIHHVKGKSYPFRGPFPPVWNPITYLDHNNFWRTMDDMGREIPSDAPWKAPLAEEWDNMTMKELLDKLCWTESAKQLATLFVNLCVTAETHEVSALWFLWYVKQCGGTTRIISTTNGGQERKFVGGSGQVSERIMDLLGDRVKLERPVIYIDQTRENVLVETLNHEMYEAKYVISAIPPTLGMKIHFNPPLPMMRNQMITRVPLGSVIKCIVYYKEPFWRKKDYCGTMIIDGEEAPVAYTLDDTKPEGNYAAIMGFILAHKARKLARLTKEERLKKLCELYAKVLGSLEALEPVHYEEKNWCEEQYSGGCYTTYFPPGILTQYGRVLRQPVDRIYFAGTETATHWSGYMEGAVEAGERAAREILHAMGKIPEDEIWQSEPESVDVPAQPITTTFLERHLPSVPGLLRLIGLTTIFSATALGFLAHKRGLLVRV

[2] = target: T2, Amine oxidase [flavin-containing] A (Homo sapiens, UniProt P21397); assay: Inhibition of recombinant human MAO-A expressed in baculovirus infected BTI insect cells using p-tyramine as substrate preincubated for 60 mins followed by substrate addition and measured after 30 mins by horse-radish peroxidase-coupled amplex red reagent-based fluorescence spectrophotometric method
T2 sequence (P21397 whole entry): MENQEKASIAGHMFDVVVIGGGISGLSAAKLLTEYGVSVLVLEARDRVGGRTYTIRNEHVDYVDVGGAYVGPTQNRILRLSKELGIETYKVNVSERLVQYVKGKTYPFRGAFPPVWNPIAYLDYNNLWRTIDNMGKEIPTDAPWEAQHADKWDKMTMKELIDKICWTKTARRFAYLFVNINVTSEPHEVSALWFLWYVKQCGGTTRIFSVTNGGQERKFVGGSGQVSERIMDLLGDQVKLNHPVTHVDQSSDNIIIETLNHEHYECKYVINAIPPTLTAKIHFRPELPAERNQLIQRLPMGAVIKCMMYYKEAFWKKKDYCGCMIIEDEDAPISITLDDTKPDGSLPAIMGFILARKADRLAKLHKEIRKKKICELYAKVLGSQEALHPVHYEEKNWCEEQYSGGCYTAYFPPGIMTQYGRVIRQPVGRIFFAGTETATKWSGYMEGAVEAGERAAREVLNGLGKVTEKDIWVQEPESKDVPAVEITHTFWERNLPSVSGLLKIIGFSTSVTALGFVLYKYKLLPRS

[3] = tested on: SH-SY5Y; assay: Neuroprotection against L-glutamic acid-induced cell death in human SH-SY5Y cells assessed as increase in cell viability preincubated for 1 hr followed by L-glutamic acid addition and measured after 24 hrs by MTT assay; assay type: functional, cell-based
[4] = Anti-neuroinflammatory activity in […] cells assessed as inhibition of LPS-induced NO production preincubated for 1 hr followed by LPS stimulation measured after 24 hrs by Griess reagent based assay; assay type: functional, cell-based; details: BV-2
[5] = organism: Homo sapiens; assay: Selectivity index, ratio of IC50 for recombinant human MAO-A expressed in baculovirus infected BTI insect cells to IC50 for recombinant human MAO-B expressed in baculovirus infected BTI insect cells
[6] = tested on: SH-SY5Y; assay: Neuroprotection against H2O2-induced cell death in human SH-SY5Y cells assessed as increase in cell viability preincubated for 1 hr followed by H2O2 addition and measured after 24 hrs by MTT assay; assay type: functional, cell-based
[7] = tested on: Mus musculus; assay: Anti-neuroinflammatory activity in MPTP-induced C57BL/6 mouse of Parkinson's disease assessed as increase in tyrosine hydroxylase positive cells in substantia nigra at 10 mg/kg, po pretreated for 30 mins followed by MPTP challenge for 7 days and subsequent compound redosing for 5 days measured post-last dose by DAB staining based immunohistochemistry method; assay type: functional, organism-based
[8] = tested on: Mus musculus; assay: Anti-parkinson's activity in MPTP-induced C57BL/6 mouse model of Parkinson's disease assessed as restoration of motor ability by measuring increase in latency to fall at 10 mg/kg, po pretreated for 30 mins followed by MPTP challenge for 7 days and subsequent compound redosing for 5 days measured post-last dose by rotarod test; assay type: functional, organism-based
[9] = tested on: Mus musculus; assay: Anti-neuroinflammatory activity in C57BL/6 mouse assessed as reduction in MPTP-induced COX2 expression in mid brain at 50 mg/kg, po pretreated for 30 mins followed by MPTP challenge for 7 days and subsequent compound redosing for 5 days measured post-last dose by Western blotting analysis; assay type: functional, organism-based
[10] = tested on: Mus musculus; assay: Ex vivo Inhibition of MAO-B in mid brain homogenates of MPTP-induced C57BL/6 mouse model of Parkinson's disease at 50 mg/kg, ig using p-tyramine as substrate preincubated for 60 mins followed by substrate addition and measured after 30 mins by horse-radish peroxidase-coupled/amplex red reagent-based fluorescence spectrophotometric method; assay type: functional, organism-based
[11] = tested on: Mus musculus; assay: Anti-neuroinflammatory activity in C57BL/6 mouse assessed as reduction in MPTP-induced iNOS expression in mid brain at 50 mg/kg, po pretreated for 30 mins followed by MPTP challenge for 7 days and subsequent compound redosing for 5 days measured post-last dose by Western blotting analysis; assay type: functional, organism-based
[12] = tested on: Mus musculus; assay: Ex vivo inhibition of MAO-A in mid brain homogenates of MPTP-induced C57BL/6 mouse model of Parkinson's disease at 50 mg/kg, ig using p-tyramine as substrate preincubated for 60 mins followed by substrate addition and measured after 30 mins by horse-radish peroxidase-coupled/amplex red reagent-based fluorescence spectrophotometric method; assay type: functional, organism-based
[13] = tested on: Mus musculus; assay: Anti-neuroinflammatory activity in po dosed MPTP-induced C57BL/6 mouse model of Parkinson's disease assessed as increase in tyrosine hydroxylase expression in mid brain pretreated for 30 mins followed by MPTP challenge for 7 days and subsequent compound redosing for 5 days measured post-last dose by DAB staining based immunohistochemistry method; assay type: functional, organism-based
[14] = tested on: Mus musculus; assay: Anti-parkinson's activity in po dosed MPTP-induced C57BL/6 mouse model of Parkinson's disease assessed as restoration of motor ability by measuring increase in latency to fall pretreated for 30 mins followed by MPTP challenge for 7 days and subsequent compound redosing for 5 days measured post-last dose by rotarod test; assay type: functional, organism-based
[15] = tested on: Mus musculus; assay: Anti-parkinson's activity in MPTP-induced C57BL/6 mouse model of Parkinson's disease assessed as restoration of motor ability by measuring increase in latency to fall at 50 mg/kg, po pretreated for 30 mins followed by MPTP challenge for 7 days and subsequent compound redosing for 5 days measured post-last dose by rotarod test; assay type: functional, organism-based
[16] = tested on: Mus musculus; assay: Anti-neuroinflammatory activity in po dosed MPTP-induced C57BL/6 mouse of Parkinson's disease assessed as increase in tyrosine hydroxylase positive cells in substantia nigra pretreated for 30 mins followed by MPTP challenge for 7 days and subsequent compound redosing for 5 days measured post-last dose by DAB staining based immunohistochemistry method; assay type: functional, organism-based

| Structure (SMILES) | IC50 [1] [µM] | IC50 [2] [µM] | EC50 [3] [µM] | IC50 [4] [µM] | Ratio IC50 [5] | EC50 [6] [µM] | also measured |
| --- | --- | --- | --- | --- | --- | --- | --- |
| CN(C)CCC(=O)c1cc2ccc(O)cc2oc1=O | 71.4 | 110 | > 100 | 0.56 | 1.53 |  |  |
| Cc1cc(O)cc2oc(=O)c(C(=O)CCN3CCCC3)cc12 | 43.7 | 173 | > 100 | > 100 | 3.97 |  |  |
| COc1ccc2cc(C(=O)CCN3CCOCC3)c(=O)oc2c1 | 4.62 | 2.46 | > 100 | 8.61 | 0.53 |  |  |
| CN(C)CCC(=O)c1cc2cc(Br)c(O)c(Br)c2oc1=O | > 200 | > 200 |  | > 100 |  | > 100 |  |
| O=C(CCN1CCN(Cc2ccccc2)CC1)c1cc2ccc(O)cc2oc1=O | 41.1 | 108 | > 100 | 3.64 | 2.63 | 1.82 |  |
| CCN(CC)CCC(=O)c1cc2ccc(O)cc2oc1=O | 94 | 89.9 | 13 | 2.67 | 0.96 |  |  |
| O=C(CCN1CCOCC1)c1cc2cc(Br)c(O)c(Br)c2oc1=O | 14.1 | 34.1 |  | 24.6 | 2.42 | > 100 |  |
| C#CCN(C)[C@H](C)Cc1ccccc1 |  |  |  |  |  |  | Activity [7]: Active; Activity [8]: Active |
| O=C(CCN1CCOCC1)c1cc2ccc(O)cc2oc1=O | 151 | 111 | 22.9 | 0.01 | 0.73 | > 100 |  |
| COc1ccc2cc(C(=O)CCN3CCCC3)c(=O)oc2c1 | 18.1 | 53.1 |  | > 100 | 2.93 | > 100 |  |
| Cc1cc(O)cc2oc(=O)c(C(=O)CCN3CCOCC3)cc12 | 36 | 98.5 | > 100 | 0.28 | 2.74 | > 100 |  |
| Cc1cc(O)cc2oc(=O)c(C(=O)CCN(C)C)cc12 | 3.66 | > 200 | 25.7 | 0.22 | > 100 | 19.7 | Activity [9]: Active; inhibition [10]: Active; Activity [11]: Active; inhibition [12]: inactive; Activity [13]: Active; Activity [14]: Dose-dependent effect; Activity [15]: Active; Activity [16]: Active |
| COc1ccc2cc(C(=O)CCN(C)C)c(=O)oc2c1 | 21.1 | 7.63 |  | > 100 | 0.36 | > 100 |  |
| O=C(CCN1CCCC1)c1cc2ccc(O)cc2oc1=O | > 200 | > 200 | > 100 | 0.61 |  |  |  |
| Cc1cc(O)cc2oc(=O)c(C(=O)CCN3CCCCC3)cc12 | 119 | 136 | > 100 | 0.11 | 1.14 | 83.7 |  |
| O=C(CCN1CCCCC1)c1cc2ccc(O)cc2oc1=O | > 200 | > 200 | 45.4 | 2.13 |  | > 100 |  |
| COc1cc(/C=C/C(=O)CC(=O)/C=C/c2ccc(O)c(OC)c2)ccc1O [CURCUMIN] |  |  |  | 1.58 |  |  |  |
| COc1ccc2cc(C(=O)CCN3CCCCC3)c(=O)oc2c1 | 20.1 | 12.2 |  | 0.02 | 0.61 | > 100 |  |
| O=C(CCN1CCCC1)c1cc2cc(Br)c(O)c(Br)c2oc1=O | > 200 | 155 |  | > 100 |  | 75.1 |  |
